Measured values published in PubChem BioAssay (NCI).
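These data come from cells grown in 96-well plates and exposed to compound for 48 hours at five concentrations. At the GI50, growth is halved. At the TGI there is no net growth.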

What was measured:
Assay in all cases: NCI anticancer screen, dose series, 48 h
SW-620 colon = system: SW-620 colon
HL-60(TB) leukemia = system: HL-60(TB) leukemia
SNB-19 CNS = system: SNB-19 CNS
SN12C renal = system: SN12C renal
RPMI-8226 leukemia = system: RPMI-8226 leukemia
HS 578T breast = system: HS 578T breast
HT29 colon = system: HT29 colon
ACHN renal = system: ACHN renal
RXF 393 renal = system: RXF 393 renal
SNB-75 CNS = system: SNB-75 CNS

Row | SMILES | TGI (SW-620 colon) [µM] | TGI (HL-60(TB) leukemia) [µM] | TGI (SNB-19 CNS) [µM] | TGI (SN12C renal) [µM] | TGI (RPMI-8226 leukemia) [µM] | TGI (HS 578T breast) [µM] | TGI (HT29 colon) [µM] | TGI (ACHN renal) [µM] | TGI (RXF 393 renal) [µM] | TGI (SNB-75 CNS) [µM] | GI50 (SW-620 colon) [nM] | GI50 (HL-60(TB) leukemia) [nM] | GI50 (SNB-19 CNS) [nM] | GI50 (SN12C renal) [nM] | GI50 (RPMI-8226 leukemia) [nM] | GI50 (HS 578T breast) [nM] | GI50 (HT29 colon) [nM] | GI50 (ACHN renal) [nM] | GI50 (RXF 393 renal) [nM] | GI50 (SNB-75 CNS) [nM]
1 | COC(=O)CCN(CCC(=O)OC)C1CC1 | > 100 | > 100 | > 100 | > 100 | > 100 | > 100 | > 100 | > 100 | > 100 | > 100 |  |  |  |  |  |  |  |  |  | 
2 | O=[N+]([O-])c1ccc(Cl)cc1C=NC12CC3CC(CC(C3)C1)C2 | > 100 | 15.6 | > 100 | > 100 | 57.5 | > 92.6 | > 79.9 | > 100 | 97.6 | > 100 |  |  |  |  |  |  |  |  |  | 
3 | Nc1nc2cc(CNc3ccc(C(=O)NC(CCC(=O)O)C(=O)O)cc3)ccc2nc1-c1ccccc1 (stereo not drawn) | > 10 | > 10 | > 10 | > 10 | > 10 | > 10 | > 10 | > 10 | > 10 | > 10 |  |  |  |  |  |  |  |  |  | 
4 | CC(=O)OCC1OC(c2nnc(C)o2)=CC(OC(C)=O)C1OC(C)=O (stereo not drawn) | > 100 | > 100 | > 100 | > 100 | > 100 | > 100 | > 100 | > 100 | > 100 | > 100 |  |  |  |  |  |  |  |  |  | 
5 | CC(=O)NC1=C(C)C(=O)c2c(nc3n2CC[C@H]3OC(C)=O)C1=O | 3.26 | 8.97 | 10.8 | 3.17 | 7.4 | 9.21 | 8.13 | 9.34 | 3.12 | 9.18 |  |  |  |  |  |  |  |  |  | 
6 | Nc1c(S(=O)(=O)O)cc(Nc2cccc(S(=O)(=O)/C=C/S(=O)(=O)O)c2)c2c1C(=O)c1ccccc1C2=O | > 100 | > 100 | > 100 | > 100 | > 100 | > 100 | > 100 | > 100 | > 100 | > 100 |  |  |  |  |  |  |  |  |  | 
7 | CC(C)(C)c1cc(C2COC(=O)COCC(=O)OCCOCCOCCO2)cc(C(C)(C)C)c1O (stereo not drawn) | > 100 | > 31.6 | > 100 | 20.8 | > 100 | 45.8 | > 100 | 37.2 | 41.3 | 37 |  |  |  |  |  |  |  |  |  | 
8 | CC(=O)NC1=CC(=O)c2cc(C)cc(O)c2C1=O | 10.6 | 5.24 | > 62.7 | 14.2 | 12.2 | > 84.5 | 46.9 | 23 | 26.8 | 37 |  |  |  |  |  |  |  |  |  | 
9 | CN(C)CCOC1(CC2CCCCC2)CCC(C(C)(C)C)CC1 (stereo not drawn) | 12.7 | 7.35 | 21.9 | 20.6 | 4.9 | 23.4 | 7.02 | 20 | 8.96 | 19.1 |  |  |  |  |  |  |  |  |  | 
10 | NC(=O)NCCCC(NC(=O)OCCCCCn1ccc(=O)[nH]c1=O)C(=O)O (stereo not drawn) | > 100 | > 100 | > 100 | > 100 | > 100 | > 100 | > 100 | > 100 | > 100 | > 100 |  |  |  |  |  |  |  |  |  | 
11 | O=C(Nc1cccc(-n2ccc3c(NC(=O)c4ccccc4)nccc32)c1)c1cc(N2CCOCC2)cc(C(F)(F)F)c1 | > 100 | > 100 | > 100 | > 100 |  | 32.6 | 0.446 |  | 0.159 | 0.678 | 48.4 | 514 | 379 | 467 | 223 | 62.1 | 31.2 | 116 | 32.5 | 36.2
12 | Cc1cccc2c1C/C(=C\c1cccc(C)c1C(=O)O)C2=O | > 100 | > 100 | > 100 | > 100 | > 100 | > 100 | > 100 | > 100 | > 100 | > 100 |  |  |  |  |  |  |  |  |  | 
13 | OCC(O)C(O)C(O)C(/C=N\Nc1ncnc2ccc(Br)cc12)=N/Nc1ncnc2ccc(Br)cc12 (stereo not drawn) | > 100 | > 100 | > 100 | > 100 | > 100 | > 100 | > 100 | > 100 | > 100 | > 100 |  |  |  |  |  |  |  |  |  | 
